Results on 25 compounds are retold here after PubChem BioAssay (NCI).

Test systems include A498 renal; 786-0 renal; NCI-H23 lung; HCC-2998 colon; SK-MEL-28 melanoma; OVCAR-5 ovarian; UO-31 renal.
What all share (experiment): inhibition of tumour cell growth, NCI panel, 48 h

Several values for one entry are separate records, joined by “and”; a condition that tells them apart may be missing. Equal values may be shown once.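 Growth conditions: 96-well plates. Treatment: test compound, 48 hours, 5 concentrations. Analysis: linear interpolation between bracketing concentrations; unreached endpoints set to highest concentration. GI50 marks 50% less growth. TGI: concentration producing complete growth inhibition.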 Bounds are passed on as bounds.

Take `COCCOCOC(CCCCO)c1cc(C)c(O[Si](C)(C)C(C)(C)C)c(C)c1` (stereo not drawn): the TGI with A498 renal worked out at 26.9 µM; in the assay on 786-0 renal it was 24.4 µM; in the assay on NCI-H23 lung, 18.7 µM; in the assay with HCC-2998 colon, 19.8 µM; in the assay on SK-MEL-28 melanoma, 25.2 µM; in the assay with OVCAR-5 ovarian, 26.7 µM. The compound also showed a TGI in the assay with UO-31 renal of 17.2 µM.

On to `CCCC/C=C/C=C/C=C/CCCCCCCC(=O)OCC(COC(=O)CCCCCCC/C=C/C1C=CC(CCCC)C(C(=O)O)C1C(=O)O)OC(=O)CCCCCCC/C=C/C=C/C=C/CCCC` (stereo not drawn) (tested in a mixture with another compound), for which the TGI in the assay with A498 renal was 34.4 µM; in the assay with 786-0 renal, 31.7 µM; with NCI-H23 lung, 40.3 µM; in the assay with HCC-2998 colon, 40.7 µM; with SK-MEL-28 melanoma, 33.3 µM; in the assay with OVCAR-5 ovarian, 43.1 µM. In the assay on UO-31 renal, the TGI turned out to be 34.7 µM.

As to `CN(C)C=Nc1nc(=O)n(C2CCC(CO)O2)cc1F` (stereo not drawn), the TGI with 786-0 renal, with NCI-H23 lung, in the assay on HCC-2998 colon, in the assay with SK-MEL-28 melanoma, in the assay with OVCAR-5 ovarian and in the assay on UO-31 renal was more than 100 µM each time.

In the case of `COc1ccc(/C=C/COC(C)=O)cc1OC`, the TGI in the assay with 786-0 renal, with NCI-H23 lung, in the assay on HCC-2998 colon, in the assay on SK-MEL-28 melanoma, in the assay with OVCAR-5 ovarian and in the assay on UO-31 renal was more than 100 µM throughout.

Consider `S=P1(Oc2ccccc2)NNP2(=NP(N3CC3)(N3CC3)=NP(N3CC3)(N3CC3)=N2)NN1` (stereo not drawn), for which the TGI with A498 renal, with 786-0 renal, with NCI-H23 lung, with HCC-2998 colon, in the assay with SK-MEL-28 melanoma and in the assay on OVCAR-5 ovarian was more than 100 µM throughout. This compound gave a TGI in the assay with UO-31 renal of more than 100 µM.

Consider `COc1ccc2c(c1)[n+]([O-])c(C(N)=O)c(N)[n+]2[O-]`, for which the TGI in the assay with A498 renal was more than 100 µM; in the assay on 786-0 renal, more than 100 µM; with NCI-H23 lung, 97.7 µM; in the assay with SK-MEL-28 melanoma, more than 100 µM; with OVCAR-5 ovarian, more than 100 µM; in the assay with UO-31 renal it was more than 100 µM.

As for `N#CCCC[Si]12OCCN(CCO1)CCO2`, the TGI in the assay on A498 renal, with 786-0 renal, in the assay on NCI-H23 lung, in the assay with HCC-2998 colon, in the assay on SK-MEL-28 melanoma and with OVCAR-5 ovarian was more than 100 µM in each case. The TGI in the assay on UO-31 renal was more than 100 µM.

With `CC(=O)[O-].CC(=O)[O-].O=C(N/N=C/c1cc(Cl)cc(Cl)c1O)c1ccncc1.[Cu+2]`, the TGI in the assay with A498 renal, in the assay on 786-0 renal, in the assay on NCI-H23 lung, in the assay with HCC-2998 colon, in the assay on SK-MEL-28 melanoma and with OVCAR-5 ovarian was more than 100 µM throughout. In the assay with UO-31 renal, the TGI was more than 100 µM.

Regarding `Cc1ccc(S(=O)(=O)N2CCC2c2ccccc2)cc1` (stereo not drawn), the TGI in the assay with A498 renal, in the assay with 786-0 renal, with NCI-H23 lung, in the assay with HCC-2998 colon, in the assay on SK-MEL-28 melanoma and with UO-31 renal was more than 100 µM each time.

For `N#CC(C(=O)CCC(=O)Nc1ccc(Cl)c(Cl)c1)c1ccccc1` (stereo not drawn), the TGI in the assay on A498 renal, with 786-0 renal, with NCI-H23 lung, with HCC-2998 colon, in the assay with SK-MEL-28 melanoma and in the assay with OVCAR-5 ovarian was more than 100 µM in each case. This compound also gave a TGI with UO-31 renal of more than 100 µM.

Regarding `O=C1C(C(Nc2ccccc2)c2ccccc2)=C([O-])c2ccccc21.O=C1C(C(Nc2ccccc2)c2ccccc2)=C([O-])c2ccccc21.[Cu+2]` (stereo not drawn), the GI50 in the assay with A498 renal is 30.6 µM; in the assay on 786-0 renal, 48.3 µM; in the assay with NCI-H23 lung, 24.9 µM; in the assay on SK-MEL-28 melanoma it was more than 100 µM; in the assay on UO-31 renal, 32.2 µM. Besides, the TGI in the assay with A498 renal, in the assay on 786-0 renal, in the assay with NCI-H23 lung, in the assay on SK-MEL-28 melanoma and in the assay on UO-31 renal was more than 100 µM throughout.

For `O=S1C(=c2ccc(=C3Sc4ccccc4S3)cc2)Sc2ccccc21` (stereo not drawn), the TGI in the assay with A498 renal stood at 30.2 µM; in the assay with 786-0 renal, 30.8 µM; in the assay on NCI-H23 lung, 30.2 µM; in the assay with HCC-2998 colon, 30.3 µM; with SK-MEL-28 melanoma it was 7 µM; with OVCAR-5 ovarian, 32.4 µM. In the assay on UO-31 renal, the TGI was 35.2 µM.

Take `O=C(/C=C/c1c(O)ccc2ccccc12)c1ccc([N+](=O)[O-])cc1`: the TGI with A498 renal is more than 100 µM; in the assay on 786-0 renal, more than 55.6 µM; in the assay on NCI-H23 lung, 60.3 µM; in the assay on HCC-2998 colon, more than 100 µM; in the assay with SK-MEL-28 melanoma, more than 67.6 µM; in the assay with OVCAR-5 ovarian, more than 100 µM. The same compound came in with a TGI in the assay with UO-31 renal of more than 61.7 µM.

As to `O=c1[nH]c(-c2ccccc2)nc2cc(Cl)ccc12`, the TGI in the assay with A498 renal, with 786-0 renal, in the assay with NCI-H23 lung, in the assay on HCC-2998 colon, in the assay with SK-MEL-28 melanoma and with OVCAR-5 ovarian was more than 100 µM each time. The compound also yielded a TGI in the assay on UO-31 renal of more than 100 µM.

On to `COc1c(CC(C)=O)ccc2c1C(=O)c1ccc(C=O)c(OC(C)=O)c1C2=O`, for which the TGI in the assay with A498 renal was determined as 80.3 µM; with 786-0 renal it was 21.4 µM; with HCC-2998 colon, 24.5 µM; in the assay with SK-MEL-28 melanoma it was 23 µM; in the assay with OVCAR-5 ovarian, 30.3 µM; in the assay with UO-31 renal, 41.4 µM.

In the case of `CCOC(=O)/C(=C/c1ccc(OC)cc1)N(CC)CC`, the TGI in the assay on A498 renal, in the assay with 786-0 renal, in the assay with NCI-H23 lung, in the assay on HCC-2998 colon, in the assay with SK-MEL-28 melanoma and in the assay on OVCAR-5 ovarian was more than 100 µM in each case. Moreover, the TGI in the assay on UO-31 renal was more than 100 µM.

Take `CN(C)C(=S)/N=c1\ssc(=S)n1C1CCCCC1`: the TGI with A498 renal was more than 100 µM; in the assay with 786-0 renal, 31.6 µM; in the assay with NCI-H23 lung, more than 100 µM; in the assay on HCC-2998 colon, more than 100 µM; in the assay with SK-MEL-28 melanoma it was more than 100 µM; in the assay with OVCAR-5 ovarian, more than 100 µM. This compound also gave a TGI with UO-31 renal of more than 100 µM.

In the case of `CN(C)CC1CCCC/C1=N/O` (stereo not drawn), the TGI in the assay on A498 renal, in the assay with 786-0 renal, with NCI-H23 lung, with HCC-2998 colon, in the assay on SK-MEL-28 melanoma and in the assay on OVCAR-5 ovarian was more than 100 µM throughout. In addition, the TGI with UO-31 renal is more than 100 µM.

For the compound `O=C(Nc1nc(=S)[nH][nH]1)C(=O)C(C(=O)c1ccc2ccccc2c1)C1OC(=O)c2ccccc21` (stereo not drawn), the TGI was more than 100 µM in the assay on A498 renal; 49.5 µM in the assay on 786-0 renal; 79.9 µM in the assay with NCI-H23 lung; 24 µM with HCC-2998 colon; 49.1 µM in the assay on SK-MEL-28 melanoma; more than 100 µM in the assay with OVCAR-5 ovarian. The TGI with UO-31 renal stood at 30.5 µM.

For the compound `O=C(O)CSc1n[nH]c(-c2ccccc2O)n1`, the TGI in the assay with A498 renal, in the assay with 786-0 renal, in the assay on NCI-H23 lung, with HCC-2998 colon, with SK-MEL-28 melanoma and in the assay with OVCAR-5 ovarian was more than 100 µM throughout. The TGI with UO-31 renal is more than 100 µM.

`O=c1c2cccnc2ncn1CCN1CCCCC1`: the TGI with 786-0 renal, in the assay with NCI-H23 lung, with HCC-2998 colon, in the assay with SK-MEL-28 melanoma, in the assay on OVCAR-5 ovarian and with UO-31 renal was more than 100 µM each time.

In the case of `C[C@@]1(O)CC[C@]2(C)C3CCCC3[C@H]12` (stereo partly drawn), the TGI with A498 renal, in the assay on 786-0 renal, in the assay with NCI-H23 lung, in the assay on HCC-2998 colon, in the assay on SK-MEL-28 melanoma and with OVCAR-5 ovarian was more than 100 µM each time. The same compound yielded a TGI with UO-31 renal of more than 100 µM.

Take `Cc1[cH-]c(=O)n(-c2ccccc2)n1.[Au+].[Au].c1ccc([PH+](c2ccccc2)c2ccccc2)cc1.c1ccc([PH+](c2ccccc2)c2ccccc2)cc1`: the GI50 in the assay on A498 renal was 23.9 µM; in the assay with 786-0 renal it was 1.6 µM and 4.03 µM; in the assay with NCI-H23 lung, 9.75 µM; in the assay on HCC-2998 colon, more than 100 µM; in the assay on SK-MEL-28 melanoma, 2.52 µM; in the assay on OVCAR-5 ovarian, more than 100 µM. In addition, the GI50 in the assay with UO-31 renal is 11.6 µM. The TGI with A498 renal was 38.9 µM; in the assay on 786-0 renal, 5.53 µM and 16.6 µM; in the assay with NCI-H23 lung it was 46.1 µM; in the assay with HCC-2998 colon it was more than 100 µM; with SK-MEL-28 melanoma, 14.9 µM; with OVCAR-5 ovarian it was more than 100 µM. For the same compound, the TGI in the assay with UO-31 renal was more than 100 µM.

Regarding `CCOC(=O)C1Sc2ccccc2N=C1C` (stereo not drawn), the TGI in the assay on A498 renal, with 786-0 renal, in the assay on NCI-H23 lung, in the assay with HCC-2998 colon, with SK-MEL-28 melanoma and with OVCAR-5 ovarian was more than 100 µM throughout. For the same compound, the TGI in the assay on UO-31 renal is more than 100 µM.

As for `CCCOc1nc(N)c2cnn(C3CCCCO3)c2n1` (stereo not drawn), the TGI in the assay on 786-0 renal, with NCI-H23 lung, in the assay with HCC-2998 colon, in the assay on SK-MEL-28 melanoma, with OVCAR-5 ovarian and in the assay on UO-31 renal was more than 100 µM throughout.
